Source: US20240002326A1, “COMPOUNDS AND USE THEREOF IN METHODS OF TREATMENT” (The University of Queensland, priority 2016, published 2024)

What was measured:
[1] = Cytotoxicity assay (Alamar blue), HEK293; format: cell-based; conditions: human, HEK293 cells; HEK293, 24 h
Method in brief: (§1)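 COS-7 cells in DMEM with 10% FBS; HepG2 and HEK293 in DMEM with 1% FBS. After 24 h plating, serial compound dilutions (0.5% DMSO final) added for 24 h at 37° C. Viability from Alamar blue 5 μM, fluorescence 560/590 nm read after 2 h.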

[2] = Cytotoxicity assay (Alamar blue), HepG2; format: cell-based; conditions: human, HepG2 cells; HepG2, 24 h
full-length mouse SOX18 = full-length mouse SOX18 (Mus musculus (Mouse), UniProt P43680); assay: FP DNA-binding competition assay, full-length SOX18; conditions: full-length mouse SOX18, Prox1-DNA probe, read-out: FP IC50 ± SD
Sequence of full-length mouse SOX18 (P43680 whole entry): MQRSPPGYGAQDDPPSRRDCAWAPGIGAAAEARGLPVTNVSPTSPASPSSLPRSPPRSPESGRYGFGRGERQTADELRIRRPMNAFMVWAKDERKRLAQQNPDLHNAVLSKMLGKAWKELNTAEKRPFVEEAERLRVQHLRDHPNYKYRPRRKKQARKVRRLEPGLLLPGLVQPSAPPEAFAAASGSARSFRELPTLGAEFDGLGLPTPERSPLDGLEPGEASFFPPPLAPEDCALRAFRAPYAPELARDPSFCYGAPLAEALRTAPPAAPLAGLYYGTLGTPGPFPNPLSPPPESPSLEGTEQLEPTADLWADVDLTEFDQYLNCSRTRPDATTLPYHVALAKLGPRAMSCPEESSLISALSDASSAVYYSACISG
Procedure: Full-length mouse SOX18. A N-terminally tagged mouse HIS-GST-SOX18 was recombinantly expressed in Sf9 cells, purified on GST resin (GE Healthcare Life Sciences, Sweden) and eluted in Tris buffer (50 mM Tris, 500 mM NaCl, 10 mM reduced glutathione, pH 8.0). cDNA clone of mouse Sox18 was PCR amplified and cloned into the pOPIN-GST vector, to generate N-terminally tagged HIS-GST-SOX18. A sequence verified construct was co-transfected with flashBACULTRA (Oxford Expression Technologies, Oxford, United Kingdom) baculovirus DNA onto Spodoptera frugiperda Sf9 cells to obtain recombinantly expressed HIS-GST-SOX18. High Five cells (BTI-TN-5B1-4) in Sf-900™ II serum-free medium were infected at cell density of 1.5×10^6 cells/mL with a multiplicity of infection (MOI) of 5 PFU/cell, and incubated at 21° C. for 144 h before harvest. The cell pellet from 100 mL of expression culture was resuspended in 30 mL of phosphate lysis buffer (50 mM sodium phosphate, 500 mM sodium chloride, 1% Triton X-100, 2 mM magnesium chloride, one tablet of cOmplete Protease Inhibitor Cocktail, pH 7.5) and sonicated on ice for 20 s. The cell lysate was centrifuged at 17,000×g for 40 min at 4° C. Supernatant was incubated with Benzonase Nuclease (Merck Millipore) for 1 h at room temperature for DNA degradation, before being mixed with 500 μL GST resin (GE Healthcare Life Sciences, Sweden) and incubated on a rotating wheel at room temperature for 1 h. The sample was centrifuged at 500×g for 1 min to remove unbound protein in the supernatant. The resin was further washed with 50 resin volumes (RV) wash buffer (50 mM sodium phosphate, 500 mM NaCl, pH 7.5), with unbound protein removed by centrifugation as above. Bound protein was eluted from the resin with 3×1 RV elution buffer (50 mM Tris, 500 mM NaCl, 10 mM reduced glutathione, pH 8.0), collecting the supernatant by centrifugation as above.
The DNA-binding competition assay was performed in black 384-well plates, with mouse full length SOX18, or SOX-HMG fragments. All experiments were performed using a fluorescently-labelled Prox1-DNA element. Controls consisted of free labelled DNA (low FP milli-Polarization index, mP), labelled DNA in presence of protein (negative control, high mP), and labelled DNA and protein in presence of competing excess of unlabelled DNA (positive control, low mP)
The DNA-binding competition assay was performed in 25 uL, in black 384-well plates, using either 30 mM HEPES (N-2-Hydroxyethylpiperazine-N′-2-Ethanesulfonic Acid) (pH 7.5, with 100 mM KCl, 40 mM NaCl, 10 mM NH4OAc, […], 2 mM MgCl2, 0.5 mM EDTA, 0.01% NP-40) for mouse full length SOX18, or Tris-NaCl (10 mM Tris pH 8.0 and 100 mM NaCl) for SOX-HMG fragments. All experiments were performed using a 40 bp double-stranded Prox1-DNA element with 5′ fluorescein amidite (FAM) label (Sigma Proligo or InVitrogen). Optimum binding levels were obtained at 200 nM of mouse full length SOX18 and 60 nM of SOX-HMG fragment, in presence of 5 nM labelled DNA. Controls consisted of free labelled DNA (low FP milli-Polarization index, mP), labelled DNA in presence of protein (negative control, high mP), and labelled DNA and protein in presence of 400 time competing excess of unlabelled DNA (positive control, low mP). Depending on compound, final DMSO concentrations ranged from 2 to 3.33% v/v. After mixing protein, DNA probe and compound, plates were sealed and briskly agitated in the dark for 5 minutes at room temperature, 10 minutes at 37° C., and 30 minutes at room temperature, before reading fluorescence polarization on a Tecan M1000Pro (λexc=485 nm, λem=525 nm). All experiments were performed in triplicates.

SOX18 = SOX18 (Mus musculus (Mouse), UniProt P43680); assay: Cell-based luciferase SOX18-dependent transactivation (Vcam1 promoter) in COS-7; conditions: COS7, 24 h
Sequence of SOX18 (P43680 whole entry): as above
Procedure: Monkey kidney fibroblast-like cells (COS-7) were cultured at 37° C., 5% CO2 in DMEM (Life technologies, 11995) with FBS, sodium pyruvate, L-glutamine, penicillin, streptomycin, non-essential amino acids and HEPES. Cells were grown in 96-well plates to 80% confluency, and transfected with mouse plasmids pGL2 Vcam 1 promoter construct (VC1889) and pSG5 Sox18, using X-tremeGENE 9 DNA transfection reagent (Roche, 06365787001) (Hosking et al., 2004, Duong et al., 2014). After 4-6 h transfection, cells were incubated with compounds in 0.5% FBS medium for another 24 h, before lysis and luciferase assay (Perkin Elmer, 6016711).

HEK293 = assay: Cytotoxicity assay (Alamar blue), HEK293; format: cell-based; conditions: HEK293, 24 h
Method in brief: as §1

HepG2 = assay: Cytotoxicity assay (Alamar blue), HepG2; format: cell-based; conditions: HepG2, 24 h

Structure (SMILES)	CC50 at 24 h [1]	CC50 at 24 h [2]	IC50 (full-length mouse SOX18)	also measured
COc1cc(C)cc(/C=C/c2ccc3ccccc3c2)c1C(=O)O [Sm34, (E)-2-methoxy-4-methyl-6-(2-(naphthalen-2-yl)vinyl)benzoic acid]	> 100 µM	> 100 µM		
O=C(O)c1c(O)cccc1COCCc1ccccc1 [Sm5]			1100 µM	IC50 (SOX18; read-out: In vitro efficacy in cell IC50 ± SD COS7 (Luc)): 21 ± 14 µM
O=C(O)c1ccccc1Nc1cccc(C(F)(F)F)c1 [Flufenamic acid, reference compound]			220 ± 68.6 µM	In vitro efficacy in cell IC50 ± SD COS7 (Luc) (SOX18): cytotoxicity was reached before any concentration-dependent SOX18 inhibition could be observed
Oc1cc(CCc2ccccc2)cc(O)c1O [Sm40, 5-phenethylbenzene-1,2,3-triol]	> 100 µM	> 100 µM		
CCN(CC)C(=O)c1c(O)cc(O)cc1CCc1ccc2ccccc2c1 [Sm26, N,N,diethyl-2,4-hydroxy-6-(2-(naphthalen-2-yl)ethyl)benzamide]				CC50 (HEK293): 23.5 µM; CC50 (HepG2): 16.8 µM
